Reference: publication PMC8504577, “Evaluation of a Clinically Relevant Drug–Drug Interaction Between Rosuvastatin and Clopidogrel and the Risk of Hepatotoxicity” (Frontiers in Pharmacology, 2021)
Where two headings read alike, the source gives them in different places.

Key:
[1] = for Imax,u, unbound steady-state plasma peak concentration: fu×I1
[2] = set-up: method as in Tornio et al. (2014); conditions: ref Tornio et al. (2014); cited from earlier work
OATP1B1 [3] = conditions: ref Tamraz et al. (2013), cited from earlier work
[4] = cited from earlier work
[5] = Plasma pharmacokinetic study in rats; conditions: for AUC0–12h: rat plasma
Experimental: For the plasma pharmacokinetic study, 16 rats were randomly assigned into four groups (n = 4, each group, groups I to IV) and received oral (p.o.) administrations as oral gavage of CP (27 mg/kg) or the same volume of vehicle control for 20 days. Then, the rats were made to fast overnight before dosing but with free access to water. On day 21, rats in group I were treated with a p.o. dose as oral gavage of CP at 27 mg/kg and a single intravenous (i.v.) dose of RSV at 5 mg/kg. Rats in group II were treated with a p.o. dose as oral gavage of vehicle control and a single i.v. dose of RSV at 5 mg/kg. Rats in group Ⅲ were treated with a p.o. dose as oral gavage of CP at 27 mg/kg and a p.o. dose as oral gavage of RSV at 5 mg/kg. Rats in group Ⅳ were treated with a p.o. dose as oral gavage of vehicle control and a p.o. dose as oral gavage of RSV at 5 mg/kg. Blood samples (0.15 ml) were collected at 0, 1, 2, 5, 15, 30, 60, 120, 180, 360, 480, 600, and 720 min after administration of the i.v. dose of the RSV group and at 0, 5, 30, 60, 120, 180, 360, 480, 600, and 720 min for the p.o. dose as oral gavage of the RSV group. After each sampling, a volume of 0.15 ml physiologic saline solutions was administered to sustain isotonic fluid balance. Plasma samples were harvested by using a centrifuge and then stored at −80°C until analysis by LC-MS/MS.
A Shimadzu LC-30AD liquid chromatography system (Shimadzu, Kyoto, Japan) and an API4000 triple quadruple tandem mass spectrometer (Applied Biosystems/Sciex, Framingham, MA, United States) coupled with an ESI source was used for the LC-MS/MS analysis of in vivo samples. The separation was carried out on an Agilent Extend C18 column (1.8 µm, 4.6 mm × 30 mm, Agilent Technologies). The mobile phase consisting of acetonitrile (A) and water (B: 1 mM ammonium acetate and 1% (V/V) formic acid). […] The flow rate was 1 ml/min and the gradient elution method was as follows: 0.01 min (10% A)-0.4 min (10% A), 0.8 min (95% A)-2.0 min (95% A), and 2.3 min (10% A)-2.5 min (stop).
(§1) Phoenix WinNonlin® 7.1 (Pharsight Corporation, Mountain View, CA, United States) was used to calculate the pharmacokinetic parameters by the noncompartmental method. IC50 values were obtained by a computer-generated nonlinear least squares fit using GraphPad Prism 8.1 (GraphPad Software, San Diego, CA, United States). Statistical analysis was performed using SPSS ver. 22.0 (IBM, Chicago, IL, United States). The results are presented as mean ± S.D., unless otherwise stated. After testing for the homogeneity of variance, statistical analysis was performed with a one-way ANOVA followed by the LSD post hoc test or unpaired Student’s t-test. A probability (p) of less than 0.05, 0.01, and 0.001 was considered to be statistically significant, highly significant, and extremely significant, respectively.

[6] = human; ref Ayalasomayajula et al., 2007; Itkonen et al., 2015; cited from earlier work
OATP1B1 [7] = biological target: T1, OATP1B1 (Homo sapiens, UniProt Q9Y6L6); assay: cell-based; conditions: 100 μM
T1 sequence (Q9Y6L6 1-691): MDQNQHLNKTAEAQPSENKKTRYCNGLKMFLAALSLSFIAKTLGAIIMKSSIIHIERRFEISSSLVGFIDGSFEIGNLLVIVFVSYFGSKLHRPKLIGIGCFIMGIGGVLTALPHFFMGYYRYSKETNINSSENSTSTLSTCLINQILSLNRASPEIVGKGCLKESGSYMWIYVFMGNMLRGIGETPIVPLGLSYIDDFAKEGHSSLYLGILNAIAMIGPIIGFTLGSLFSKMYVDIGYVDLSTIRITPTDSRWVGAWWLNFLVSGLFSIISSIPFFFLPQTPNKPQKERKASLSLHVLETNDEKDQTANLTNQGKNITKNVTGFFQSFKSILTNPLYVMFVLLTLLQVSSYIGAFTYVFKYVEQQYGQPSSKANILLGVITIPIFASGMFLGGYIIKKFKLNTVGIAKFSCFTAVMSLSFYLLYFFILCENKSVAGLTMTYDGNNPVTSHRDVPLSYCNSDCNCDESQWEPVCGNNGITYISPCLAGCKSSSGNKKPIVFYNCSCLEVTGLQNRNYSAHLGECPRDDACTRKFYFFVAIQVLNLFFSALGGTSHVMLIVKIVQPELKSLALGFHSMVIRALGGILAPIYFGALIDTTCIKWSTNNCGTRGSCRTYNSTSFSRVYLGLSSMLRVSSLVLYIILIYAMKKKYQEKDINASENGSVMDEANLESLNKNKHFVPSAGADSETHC
Experimental: (§2) The OATP1B1, OATP1B3, and mock cells were cultured in the DMEM medium containing 10% fetal bovine serum, penicillin–streptomycin solution (100 U/mL and 0.1 mg/ml), and 0.5 mg/ml geneticin at 37°C in the presence of 5% CO2. The cells were seeded in a 24-well plate at a density of 4×10^5 cells/well and grown for 80–90% confluence. […] After washing the cells three times with transporter buffer at 4°C, the cells were lysed with liquid nitrogen. The lysates were precipitated with methanol and centrifuged at 12,000 rpm at 4°C for 5 min. The supernatant was analyzed by LC-MS/MS. Protein concentration was determined using the Pierce® BCA Protein Assay Kit. All experiments were performed in triplicate.
as §1

OATP1B3 = biological target: T2, OATP1B3 (Homo sapiens, UniProt Q9NPD5); assay: cell-based; conditions: 100 μM
T2 sequence (Q9NPD5 1-702): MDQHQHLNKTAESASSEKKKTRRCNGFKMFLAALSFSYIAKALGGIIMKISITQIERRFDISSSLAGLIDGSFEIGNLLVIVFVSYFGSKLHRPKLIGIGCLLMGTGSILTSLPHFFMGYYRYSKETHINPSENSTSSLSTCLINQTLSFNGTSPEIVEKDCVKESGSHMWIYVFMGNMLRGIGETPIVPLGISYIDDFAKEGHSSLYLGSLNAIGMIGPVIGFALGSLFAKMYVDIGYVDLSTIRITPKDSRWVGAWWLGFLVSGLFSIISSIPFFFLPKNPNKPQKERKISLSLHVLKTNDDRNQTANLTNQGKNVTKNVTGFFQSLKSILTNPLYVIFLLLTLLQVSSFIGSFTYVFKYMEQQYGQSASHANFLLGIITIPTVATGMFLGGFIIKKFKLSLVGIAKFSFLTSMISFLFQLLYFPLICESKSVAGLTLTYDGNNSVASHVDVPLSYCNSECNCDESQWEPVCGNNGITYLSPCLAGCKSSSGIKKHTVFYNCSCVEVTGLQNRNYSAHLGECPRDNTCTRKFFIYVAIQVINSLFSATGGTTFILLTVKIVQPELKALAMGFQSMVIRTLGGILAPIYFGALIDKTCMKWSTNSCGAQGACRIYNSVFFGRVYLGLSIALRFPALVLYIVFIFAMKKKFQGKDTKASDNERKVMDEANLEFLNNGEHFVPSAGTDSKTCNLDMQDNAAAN
Experimental: as §2, §1

[8] = tested on: human primary hepatocytes; assay: Cytotoxicity (MTT, AST, LDH) in cryopreserved human hepatocytes; type: cell-based; conditions: 24 and 96 h incubation
Experimental: Cytotoxicity was determined with MTT assay in cryopreserved human hepatocytes. Thawing and plating of cryopreserved hepatocytes were carried out according to the manufacturer’s protocol. […] 11 μL of 5 mg/ml MTT was added to each well of the plate, and then the plate was incubated at 37°C for 3–4 h. After the medium was aspirated, 150 μL of DMSO was added to dissolve the formazan. The absorbance at 570 nm was measured and corrected for background absorption at 690 nm using a SpectraMax® i3 plate reader (Molecular Devices, Silicon Valley, CA, United States). AST and LDH levels in the medium of parallel processed plates were measured by commercially available assay kits. […] All experiments were performed in triplicate.

[9] = substrate cerivastatin, read-out: IC50 OTAP1B1 (cerivastatin, CER, as substrate)
[10] = substrate estrone sulfate, read-out: IC50 OTAP1B1 (estrone sulfate, ES, as substrate)

COC(=O)[C@H](c1ccccc1Cl)N1CCC2SC(=O)C=C2C1 (stereo partly drawn) [2-Oxo clopidogrel, 2-oxo clopidogrel]
I1, peak plasma concentration at steady state ([1]; 75 mg CP, calculated from I1 at 300 mg assuming linear pharmacokinetics): 0.004 µM | Imax,u, unbound steady-state plasma peak concentration ([1]; 75 mg CP): 0.00008 µM | Imax,u, unbound steady-state plasma peak concentration ([1]; 300 mg CP): 0.0003 µM | fu, fraction unbound in human plasma [2]: 0.02 [Tornio et al. (2014)] | IC50 (OATP1B1 [3]; [9]): 8.18 µM | IC50 (OATP1B1 [3]; [10]): 8.97 µM | I1, peak plasma concentration at steady state ([4]; 300 mg CP, ref Kim et al. (2016)): 0.016 [Kim et al. (2016)] μM

O=C(O)[C@H](c1ccccc1Cl)N1CCc2sccc2C1 [CPC, clopidogrel carboxylic acid]
AUC0–12h ([5]; Group I: single i.v. RSV 5 mg/kg + multiple p.o. CP 27 mg/kg): 299,764 ± 153,504.1 ng×h/mL | AUC0–12h ([5]; Group III: single p.o. RSV 5 mg/kg + multiple p.o. CP 27 mg/kg): 230,181 ± 109,005.9 ng×h/mL | Plasma exposure ([5]; rats, at 12 h post-dose): remains high | fu, fraction unbound in human plasma [2]: 0.06 [Tornio et al. (2014)] | Elimination half-life ([4]; ref Sanofi-Aventis, 2011): 8 h

O=C(O)[C@H]1O[C@@H](OC(=O)[C@H](c2ccccc2Cl)N2CCc3sccc3C2)[C@H](O)[C@@H](O)[C@@H]1O [Clopidogrel acyl glucuronide, clopidogrel acyl-β-D-glucuronide]
Imax,u, unbound steady-state plasma peak concentration ([1]; 75 mg CP): 0.172 µM | Imax,u, unbound steady-state plasma peak concentration ([1]; 300 mg CP): 0.477 µM | fu, fraction unbound in human plasma [2]: 0.1 [Tornio et al. (2014)] | IC50 (OATP1B1 [3]; [9]): 10.9 µM | IC50 (OATP1B1 [3]; [10]): 33.5 µM | I1, peak plasma concentration at steady state ([4]; 75 mg CP, ref Itkonen et al. (2015)): 1.72 [Itkonen et al. (2015)] μM | I1, peak plasma concentration at steady state ([4]; 300 mg CP, ref Itkonen et al. (2015)): 4.77 [Itkonen et al. (2015)] μM

CC(C)n1c(/C=C/C(O)CC(O)CC(=O)O)c(-c2ccc(F)cc2)c2ccccc21 (stereo not drawn) [fluvastatin]
Effect of concomitant CP on plasma concentration of the statin [6]: did not change

O=C(O)C[C@H](O)C[C@H](O)/C=C/c1c(C2CC2)nc2ccccc2c1-c1ccc(F)cc1 [pitavastatin]
Effect of concomitant CP on plasma concentration of the statin [6]: did not change

CO[C@H]1/C=C/O[C@@]2(C)Oc3c(C)c(O)c4c(O)c(c(/C=N/N5CCN(C)CC5)c(O)c4c3C2=O)NC(=O)/C(C)=C\C=C\[C@H](C)[C@H](O)[C@@H](C)[C@@H](O)[C@@H](C)[C@H](OC(C)=O)[C@@H]1C [rifampin]
Inhibition of RSV uptake by OATP1B1 cells (positive control) (OATP1B1 [7]): significantly inhibited | Inhibition of RSV uptake by OATP1B3 cells (positive control) (OATP1B3): significantly inhibited

CC/C(=C(\c1ccccc1)c1ccc(OCCN(C)C)cc1)c1ccccc1 [tamoxifen]
Cytotoxicity (MTT) [8]: Dose-dependent cytotoxicity
